Data from patent US10273313B2, “Multimeric mannosides, a process for preparing the same and their uses as a drug” (CENTRE NATIONAL DE LA RECHERCHE SCIENTIFIQUE, priority 2012, dated 2019).
Where “and” joins values, the source holds several entries; their conditions need not be identical. Equal entries are not always repeated. Where two headings read alike, the source gives them in different places.

Experiments:
[1] = test system: E. coli strain UTI89 expressing type-1 fimbriae; experiment: Bacterial crosslinking, epi-fluorescence microscopy; format: cell-based, Escherichia coli; conditions: acridin orange colored UTI89
Method: The possibility to capture living bacteria in solution with β-CD-based glycol-clusters 2 and 4, using epi-fluorescence microscopy was investigated.
It was decided to evaluate if the FimH aggregation evidenced in ITC, DLS and SAXS could also occur when the lectin is attached at the tip of the bacteria pili. E. coli strain UTI89 expressing type-1 fimbriae. Said bacteria were diluted from the culture medium into PBS and glyco-conjugated in a ten-fold dilution series of 2 or 4 were added. Bacterial cells were then colored with acridin orange.
100 μl of glycoconjugate-agglutinated E. coli were washed in 1 ml PBS, resuspended in 200 μl 0.1% acridin orange and left at room temperature for 2.5 hours. The bacterial cells were washed again in 1 ml PBS to remove unbound acridin orange. A microscope glass was rinsed with 100% EtOH and next dried at the air.

[2] = test system: human Jurkat cells; experiment: Prevention of FimH-induced apoptosis of Jurkat cells (24 h)
Method: Eventually, we tested the ability of mannose-based inhibitors to prevent the induction of cell death of human Jurkat cells under the treatment with FimH. We cultures cells with the indicated compound for 24 h and counter percentage of viable (AnV−/Pi−), apoptotic (AnV+/Pi−) and necrotic cells (AnV+/PI+). […] 2. […] 3.
Apoptosis was induced by UV-B irradiation with 90 mJ/cm^2, apoptosis of human PMN cells was induced by 24 h aging. To quantify the rate of apoptosis, cells were analyzed by flow cytometry or fluorescent microscopy. Amongst other features, apoptosis is characterized by blebbing of the cellular membrane, leading to a decrease in the forward scatter (FSC) and an increase in the sideward scatter (SSC). For detection of phosphatidylserine (PS) exposure on the cell surface staining with FITC conjugated annexin V (Böhringer, Mannheim, Germany) in combination with propidium iodide (PI) (AxV/PI) was performed. 200.000 cells were stained for 30 minutes at 4° C. with 200 ng of AxV-FITC and 500 ng propidium iodide (PI) in 500 μl Ringer's solution [Nicoletti, Migliorati, Pagliacci, Grignani and Riccardi, A rapid and simple method for measuring thymocyte apoptosis by propidium iodide staining and flow cytometry. J Immunol Methods, 1991. 139.271-9]. The samples were immediately analyzed by flow cytometry of fluorescent microscopy.

[3] = target: T1, monovalent lectin domain of FimH (Escherichia coli, UniProt P08191); format: binding
T1 construct: with the monovalent lectin domain of FimH were measured using isothermal calorimetry (ITC)
T1 sequence (P08191 22-179): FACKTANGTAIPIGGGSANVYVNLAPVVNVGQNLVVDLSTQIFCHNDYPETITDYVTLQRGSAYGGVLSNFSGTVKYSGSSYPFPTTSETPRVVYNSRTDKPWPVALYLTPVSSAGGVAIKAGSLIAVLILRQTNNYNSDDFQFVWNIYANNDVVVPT

[4] = target: FimH (Escherichia coli, UniProt P08191); conditions: Isothermal Titration calorimetry (ITC); read-out: Dissociation constant of the HM-FimH complex; cited from earlier work
Sequence of FimH (P08191 22-300): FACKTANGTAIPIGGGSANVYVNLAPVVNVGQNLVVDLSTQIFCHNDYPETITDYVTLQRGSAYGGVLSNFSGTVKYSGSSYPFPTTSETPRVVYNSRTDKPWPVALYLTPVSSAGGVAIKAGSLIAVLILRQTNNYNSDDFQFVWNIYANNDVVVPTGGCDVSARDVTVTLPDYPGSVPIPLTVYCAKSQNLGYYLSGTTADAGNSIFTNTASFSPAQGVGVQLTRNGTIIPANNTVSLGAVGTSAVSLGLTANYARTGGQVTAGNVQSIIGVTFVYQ

| Structure (SMILES) | Bacterial clustering in solution [1] | Toxicity to Jurkat cells [2] | Prevention of apoptosis induction by FimH ([2]; 10 nM) | Prevention of apoptosis induction by FimH ([2]; 100 nM) | Affinity of FimH for the ligand (in words) ([3]; ITC) | Molar ratio n meas ([3]; normal (direct) titration) | ΔG° ([3]; normal (direct) titration) [kcal/mol] | ΔH° ([3]; normal (direct) titration) [kcal/mol] | ΔS° ([3]; normal (direct) titration) [cal/mol/deg] | Kd ([3]; normal (direct) titration, compound injected into FimH) [nM] | Molar ratio n meas ([3]; reverse titration) | ΔG° ([3]; reverse titration) [kcal/mol] | ΔH° ([3]; reverse titration) [kcal/mol] | ΔS° ([3]; reverse titration) [cal/mol/deg] | Kd ([3]; reverse titration, FimH injected into compound) | Kd [4] [nM] |
| --- | --- | --- | --- | --- | --- | --- | --- | --- | --- | --- | --- | --- | --- | --- | --- | --- |
| OCC1OC(OCCCCCCCOCc2cn(CC3OC4OC5C(Cn6cc(COCCCCCCCOC7OC(CO)C(O)C(O)C7O)nn6)OC(OC6C(Cn7cc(COCCCCCCCOC8OC(CO)C(O)C(O)C8O)nn7)OC(OC7C(Cn8cc(COCCCCCCCOC9OC(CO)C(O)C(O)C9O)nn8)OC(OC8C(Cn9cc(COCCCCCCCOC%10OC(CO)C(O)C(O)C%10O)nn9)OC(OC9C(Cn%10cc(COCCCCCCCOC%11OC(CO)C(O)C(O)C%11O)nn%10)OC(OC%10C(Cn%11cc(COCCCCCCCOC%12OC(CO)C(O)C(O)C%12O)nn%11)OC(OC3C(O)C4O)C(O)C%10O)C(O)C9O)C(O)C8O)C(O)C7O)C(O)C6O)C(O)C5O)nn2)C(O)C(O)C1O (stereo not shown) [Compound 2] | formation of bacterial clusters | not toxic | effectively prevented apoptosis induction | effectively prevented apoptosis induction | nanomolar affinities | 0.12 | -10.5 | -77.5 | −227 | 18.2 | 3 and 3.01 | -11.6 | -19.2 | −25.9 | 2.86 nM and 2.9 nM |  |
| CCCCCCCO[C@H]1O[C@H](CO)[C@@H](O)[C@H](O)[C@@H]1O [HM, Heptylmannoside, reference compound] |  |  |  |  |  |  |  |  |  |  |  |  |  |  |  | 7 |
